{"source": "patent US7776847B2", "about": "“Benzisothiazoles useful for treating or preventing HCV infection” (priority 2005, dated 2010)", "tested_on": "HCV replicon", "assay": "HCV replicon luciferase reporter assay", "type": "cell-based", "settings": "Hepatitis C virus, Table 5; read-out: IC50", "in_short": "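IC50 is the compound amount halving luciferase signal, measured after 24–48 h treatment at various concentrations. Cells carrying the HCV replicon were pre-incubated 24 h at 37° C, 5% CO2 after seeding at about 5,000–7,500 cells/well before dosing.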"}
{"smiles": "Clc1cccc(NCCCNc2nsc3ccccc23)n1", "note": "[Entry 230, N^1-(benzo[d]isothiazol-3-yl)-N^3-(6-chloropyridin-2-yl)propane-1,3-diamine]", "values": [{"measurement": "IC50", "result": "< 5", "unit": "µM"}]}
{"smiles": "FC(F)(F)c1ccnc(NCCCNc2nsc3ccccc23)c1", "note": "[Entry 231, N^1-(benzo[d]isothiazol-3-yl)-N^3-(4-(trifluoromethyl)pyridin-2-yl)propane-1,3-diamine]", "values": [{"measurement": "IC50", "result": "< 5", "unit": "µM"}]}
{"smiles": "O=C(NCCCNc1nsc2ccccc12)c1cccc(OCC(O)CN2CCOCC2)c1", "note": "(centres unmarked) [Entry 232, N-(3-(benzo[d]isothiazol-3-ylamino)propyl)-3-(2-hydroxy-3-morpholinopropoxy)benzamide]", "values": [{"measurement": "IC50", "result": "< 5", "unit": "µM"}]}
{"smiles": "COc1cccc(N2CCN(CC(O)COc3cccc(C(=O)NCCCNc4nsc5ccccc45)c3)CC2)c1", "note": "(centres unmarked) [Entry 233, N-(3-(benzo[d]isothiazol-3-ylamino)propyl)-3-(2-hydroxy-3-(4-(3-methoxyphenyl)piperazin-1-yl)propoxy)benzamide]", "values": [{"measurement": "IC50", "result": "< 5", "unit": "µM"}]}
{"smiles": "O=C(NCCCNc1nsc2ccccc12)c1ccc(F)cc1", "note": "[Entry 234, N-(3-(benzo[d]isothiazol-3-ylamino)propyl)-4-fluorobenzamide]", "values": [{"measurement": "IC50", "result": "< 5", "unit": "µM"}]}
{"smiles": "O=C(NCCCNc1nsc2ccccc12)c1ccc(OCc2ccncc2)cc1", "note": "[Entry 235, N-(3-(benzo[d]isothiazol-3-ylamino)propyl)-4-(pyridin-4-ylmethoxy)benzamide]", "values": [{"measurement": "IC50", "result": "< 5", "unit": "µM"}]}
{"smiles": "COc1cccc(COc2ccc(C(=O)NCCCNc3nsc4ccccc34)cc2)c1", "note": "[Entry 236, N-(3-(benzo[d]isothiazol-3-ylamino)propyl)-4-(3-methoxybenzyloxy)benzamide]", "values": [{"measurement": "IC50", "result": "< 5", "unit": "µM"}]}
{"smiles": "COc1ccc(COc2ccc(C(=O)NCCCNc3nsc4ccccc34)cc2)cc1OC", "note": "[Entry 237, N-(3-(benzo[d]isothiazol-3-ylamino)propyl)-4-(3,4-dimethoxybenzyloxy)benzamide]", "values": [{"measurement": "IC50", "result": "< 5", "unit": "µM"}]}
{"smiles": "O=C(O)COc1ccc(C(=O)NCCCNc2nsc3ccccc23)cc1", "note": "[Entry 238, 2-(4-(3-(benzo[d]isothiazol-3-ylamino)propylcarbamoyl)phenoxy) acetic acid]", "values": [{"measurement": "IC50", "result": "> 5", "unit": "µM"}]}
{"smiles": "CN(CCCNc1nsc2ccccc12)S(=O)(=O)c1ccccc1C(F)(F)F", "note": "[Entry 240, N-(3-(benzo[d]isothiazol-3-ylamino)propyl)-N-methyl-2-(trifluoromethyl)benzenesulfonamide]", "values": [{"measurement": "IC50", "result": "< 5", "unit": "µM"}]}
{"smiles": "COc1ccc(-c2ccc(CNCCCNc3nsc4nccnc34)cc2)cc1", "note": "[Entry 241, N^1-(isothiazolo[5,4-b]pyrazin-3-yl)-N^3-((4′-methoxybiphenyl-4-yl)methyl)propane-1,3-diamine]", "values": [{"measurement": "IC50", "result": "< 5", "unit": "µM"}]}
